Reference: patent US20230293735A1, “OXINE-CONTAINING CELL RADIOLABELLING AGENTS” (priority 2020, published 2023)

How the values were obtained:
eosinophils = settings: ref. [31]; cited from earlier work
Extracellular vesicles = test: Radiolabelling efficiency of extracellular vesicles; settings: EVs from B16-F10.GFP, MDA-MB-231.CD63-GFP, PANC1, 4T1 and 2D/3D MSC cultures
Description: FIG. 23. Use of the kit formulation to radiolabel extracellular vesicles (EVs) for imaging purposes.
Extracellular vesicles are isolated by any suitable method (e.g. by density gradient centrifugation). Extracellular vesicles (e.g. 1×10^10 to 1×10^11 vesicles) in 160 µL PBS were incubated with 20 µL ^89Zr-oxine or unchelated ^89Zr for 20 min at 37° C. with frequent shaking, followed by addition of 100 µL 1% deferoxamine in PBS to trap any unbound ^89Zr. Radiolabelled EVs were purified from unchelated radiotracer by size-exclusion chromatography (SEC) using cross-linked agarose resin (e.g. Sepharose CL-2B, GE Healthcare) in plastic columns. The reaction mixture was loaded onto the column followed by 200 µL PBS and eluted with 700-800 µL PBS. Radioactivity of the eluate and the column was measured using gamma counting to calculate labelling efficiency. The labelling efficiency of EVs obtained from B16-F10.GFP, MDA-MB-231.CD63-GFP, PANC1 and 4T1 cell lines and from 2D and 3D cultures of mesenchymal stem cells (MSC) B with ^89Zr-oxine ranged from 5.4 ± 3.2% for 2D-culture derived MSC-EVs to 27.6 ± 6.5% for 4T1 EVs (FIG. 23).

WBCs = test: In vitro chemotaxis assay of radiolabelled WBC towards fMLP; assay type: cell-based, human; settings: vs ^111In-oxine and unlabelled control cells
Description: FIG. 17. Chemotaxis of radiolabelled WBC. Cells were incubated with ^89Zr-oxine, ^111In-oxine, or vehicle only. The chemotaxis index is the number of cells migrating towards 10 nM fMLP divided by the number of cells migrating towards vehicle, averaged from triplicates for each sample. Each point represents one donor. Bars represent the mean ± SD of n = 9, 10 and 10 individual samples. p≥0.05.
The functionality of WBCs radiolabelled as in Example 8 was tested using an in vitro chemotaxis assay, where the number of WBCs migrating in response to the neutrophil chemoattractant N-formyl-Met-Leu-Phe (fMLP) was measured.
After radiolabelling, red blood cells (RBCs) were removed from the cell pellets hypotonic lysis. Cells were resuspended in 4.5 mL cold H2O for 30 s, after which isotonicity was restored by addition of 0.5 mL 10x PBS. Lysed RBC were removed by centrifugation and the remaining WBC were resuspended in assay medium at 3.5×10^6 cells/mL. […] The top wells were emptied, the plate was centrifuged at 150 g for 5 min to detach the cells from the membrane and the cells in the bottom wells were counted using a haemocytometer. The chemotaxis index (CI) was calculated by dividing the number of WBC in the wells containing fMLP by the number of WBC in the wells containing medium only.

WBC = test: Viability of radiolabelled cells, Trypan Blue dye exclusion; assay type: cell-based, human
Description: FIG. 16. WBC radiolabelling with ^89Zr-oxine and ^111In-oxine. Percentage of viable ^89Zr- and ^111n-labelled WBC after 4 h and 24 h, measured using the Trypan blue assay. Mean ± SD of n=6 per group, Student’s two-tailed paired t-test. ns: not significant (p≥0.05).
Viability was assessed by microscopy using the Trypan Blue dye exclusion method. Cell viability after radiolabelling with ^89Zr-oxine was 99.4±0.3% immediately after labelling, 97.0±2.3% after 4 h and 92.6±4.8% after 24 h (FIG. 16).

[1] = Activity recovery from vial (gamma-counting of aliquots); assay type: physicochemical; settings: for added ^89Zr activity recoverable: formulation with 5% EtOH
Description: FIG. 9. Recovery of ^89Zr-oxine complexes from the reaction vial over time. The figure compares formulations containing 8-hydroxyquinoline, HEPES and NaOH only (dots), and additional 5% EtOH (squares) or 1 mg/mL polysorbate 80 (diamonds). ^89Zr-oxalate was added to 100 µL of the formulation of the invention in a glass vial and left at room temperature for up to 1 week. 10 µL aliquots were removed from the glass vial immediately after addition (0 min) and after 15 min, 30 min, 1, 2, 24, 48, 72 and 168 h, then gamma-counted at the end of the experiment. The recovered activity is expressed as the activity in the aliquot at the indicated time as a percentage of the activity sampled immediately after addition of ^89Zr to the-formulation of the invention. Mean±SD, N=3.
FIG. 10. Recovery of ^89Zr-oxine complexes from the reaction vial over time as a function of the amount of polysorbate 80. […] 10 µL aliquots were removed from the glass vial immediately after addition (0 min) and after 15 min, 30 min, 1, 2, 24, 48, 72 and 168 h, then gamma-counted at the end of the experiment. The recovered activity is expressed as the activity in the aliquot at the indicated time as a percentage of the activity sampled immediately after addition of ^89Zr to the formulation of the invention. […]
The stability of the compositions described herein can be assessed, for example, in terms of their recovered activity. The recovered activity is expressed as the percentage of activity (i.e. radioactivity, as assessed by gamma-counting) in a sample at the time of measurement, relative to the activity sampled immediately after addition of the radioactive metal containing solution to the oxine formulation described herein. […]
Activity recovery from vial: ^89Zr was added to 100 µL of the formulation. […] The aliquots were gamma-counted on day 7 after addition of ^89Zr. The percentage of activity recovered from the vial was determined as the counts in each sample divided by the counts in the reference sample.

WBC populations = test: Relative activity per cell in FACS-sorted WBC populations, gamma-counted; assay type: cell-based, human; settings: flow-assisted cell sorting
Description: FIG. 18. Relative activity per cell of ^89Zr in WBC populations after labelling of mixed WBC with ^89Zr-oxine. Radiolabelled WBC were sorted by FACS and gamma-counted. Each point represents cells from an individual donor.
To determine whether certain subtypes of WBC had preferential uptake of ^89Zr-oxine, radiolabelled WBC were stained with fluorescent monoclonal antibodies, automatically sorted and gamma-counted. ^89Zr-radiolabelled WBC were stained (15 min at 4° C.) with a combination of CD45-APC-Vio770 (#130-110-773), CD3-PE (REA613, #130-113-701), CD14-APC (#130-110-578), CD19-PE-Vio770 (REA675, #130-114-173) and CD16-FITC (REA423, #130-113-954) antibodies to sort samples into neutrophils, eosinophils, monocytes, T cells and B cells, or CD45-APC-Vio770, […] (REA175, #130-117-800) and CD41a-PE (REA386, #130-121-429) to sort red blood cells and platelets. Compensation settings were adjusted using beads (anti-REA MACS® Comp, #130-104-693). Samples were analysed and sorted on a FACSMelody instrument (BD Biosciences) equipped with blue (488 nm), yellow-green ([…]) and red (633 nm) lasers. For each cell type, a fixed number of events was collected, and the fractions were gamma-counted to determine the amount of activity per cell.

Human WBCs = test: Radiolabel retention in radiolabelled WBC in autologous cell free plasma; assay type: cell-based; settings: p>0.05, n=10
Description: Human WBCs from 10 healthy donors were radiolabelled with ^89Zr-oxine and ^111In-oxine as described in Example 8 and an intra-individual comparison of labelling with ^89Zr-oxine and ^111In-oxine was performed. Labelling efficiency was determined as described in Example 7. For radiolabel retention studies, radiolabelled WBC were suspended in autologous CFP (cell free plasma), in triplicate in a 24-well plate and incubated at 37° C. Cells were collected after 4 h or 24 h, diluted with PBS, centrifuged at 200 g for 10 min, and supernatants and pellets were measured in a dose calibrator to determine retention using the same formula as for labelling efficiency. The labelling efficiency of WBCs with ^89Zr-oxine was 48.7±6.3%, vs 89.1±9.5 (p<0.0001, n=10) for ^111In-oxine (FIG. 14). Cellular retention of ^89Zr was 91.4±1.4% after 4 h incubation in autologous CFP and 86.6±2.9% after 24 h (FIG. 15). […] The labelling of WBC with ^89Zr-oxine was reliable, consistently achieving 45-50% labelling efficiency with 160-480 million cells.

Question: For `C/C(=N\[O-])[C@@H](C)[N-]CC(C)(C)C[N-][C@H](C)/C(C)=N/O.[O]=[99Tc+3]` (racemic) [^99mTc-HMPAO], which “preferential accumulation in leucocyte subtype” value (eosinophils) is on record?
Answer: accumulated preferentially in eosinophils

Question: Which “labelling efficiency of EVs compared to unchelated ^89Zr” value (Extracellular vesicles) does the source give for `c1cnc2c([O][89Zr]([O]c3cccc4cccnc34)([O]c3cccc4cccnc34)[O]c3cccc4cccnc34)cccc2c1` [^89Zr-oxine] here?
Answer: higher labelling efficiency

Question: And the “chemotactic properties of labelled WBC” value (WBCs)?
Answer: retained their chemotactic properties

Question: And the “cell viability after radiolabelling” value (WBC; after 4 h)?
Answer: 97.0±2.3%

Question: What about the “cell viability after radiolabelling” value (WBC; after 24 h) of the same molecule?
Answer: 92.6±4.8%

Question: And the “cell viability after radiolabelling” value (WBC; immediately after labelling)?
Answer: 99.4±0.3%

Question: What about the “added activity recoverable from the vial” value ([1]; 1 M HEPES buffer (pH 7.9), no surfactant or organic solvent, glass vessel, 15 min after addition of ^89Zr) of the same molecule?
Answer: 46%

Question: And the “added ^89Zr activity recoverable” value ([1]; after 1 h)?
Answer: 46%

Question: And the “added ^89Zr activity recoverable” value ([1]; after 24 h)?
Answer: less than 6%

Question: What about the “preferential uptake by leukocyte populations” value (WBC populations) of the same molecule?
Answer: no preferential uptake by any specific leukocyte population

Question: And the “uptake in RBCs and platelets” value (WBC populations)?
Answer: significant uptake

Question: Which results are given for `c1cnc2c([O][111In]([O]c3cccc4cccnc34)[O]c3cccc4cccnc34)cccc2c1` [^111In-oxine, reference compound]?
Answer: viability compared with ^89Zr-oxine (WBC; p>0.05, n=6-10): no significant differences; radiolabelling agent retention compared with ^89Zr-oxine (Human WBCs): no significant differences
